The assay concerns the target T1, human PNPO F48A/E50L/H248N/R258L variant (Homo sapiens, UniProt Q9NVS9, E50L/F48A/H248N/R258L).
T1 construct: a main form corresponding to the entire protein; made in house; host or cells: E. coli BL21(DE3)
T1 sequence (Q9NVS9 1-261 F48A/E50L/H248N/R258L): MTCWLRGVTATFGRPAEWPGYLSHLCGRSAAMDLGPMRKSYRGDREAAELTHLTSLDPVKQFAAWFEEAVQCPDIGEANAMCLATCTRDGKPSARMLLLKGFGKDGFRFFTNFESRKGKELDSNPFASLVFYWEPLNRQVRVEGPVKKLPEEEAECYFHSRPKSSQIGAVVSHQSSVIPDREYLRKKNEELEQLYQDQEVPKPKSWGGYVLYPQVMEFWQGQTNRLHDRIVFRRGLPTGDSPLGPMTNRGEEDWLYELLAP
Kind of assay: PLP binding by DSF, quadruple variant. The note with it: 50 mM Na-HEPES pH 7.6, 2 μM enzyme. The text has this:
PLP binding to PNPO can be detected and quantitatively measured using differential scanning fluorimetry (DSF) and also by measuring FMN fluorescence changes. We had previously attributed DSF changes to PLP binding at the active site, while FMN fluorescence changes were attributed to PLP binding at the allosteric site (Barile et al., [2019], [2020]). Previous experiments carried out with the PNPO R161C variant, affecting a residue that is essential for substrate binding and catalysis (and therefore also for PLP binding at the active site), confirms that DSF measurements only report PLP binding at the active site (Barile et al., [2021]; Table 1). […] We expected to observe no FMN fluorescence changes upon titration of the variants with PLP. However, this was not the case, and the dissociation constant values obtained by observing the FMN fluorescence emission were only up to threefold larger in the variants with respect to wild type PNPO (Figure 3). […] To check the second possibility, we measured intrinsic fluorescence changes of wild type and variant apo‐forms (i.e., without FMN) upon PLP titration. […]
FIGURE 2 DSF measurements with F48A (a), F48A/E50L/R258L (b), F48A/E50L/H248N/R258L (c), and 1‐31del PNPO variants in the presence of different PLP concentrations. Upper panels: Fluorescence change is expressed as fractional variation as a function of temperature. […]

Where “and” joins values, the source holds several entries; their conditions need not be identical. Equal values may be shown once.

The term Kd denotes the concentration at which binding is half-saturated.

For the molecule `Cc1ncc(COP(=O)(O)O)c(C=O)c1O` [PLP, pyridoxal 5′‐phosphate], the Kd was 6.07 µM and 6.1 µM.
